Experiment [1] relates to cAMP-linked metabotropic glutamate receptors. Put plainly: agonism of glutamate at cAMP-linked metabotropic glutamate receptors. The experiment is classed as cell-based. The following applies: result in words only.
Experiment [2] deals with metabotropic glutamate receptors. Briefly: displacement of 1S,3R-ACPD-sensitive [3H]glutamate binding to rat brain cell membranes. The following applies: crude membranes of rat forebrain. How it is done:
The binding of [^3 H]glutamate was conducted with crude membranes of rat forebrain as described by Schoepp and True. Schoepp and True, Neuroscience Lett., 145, 100-104 (1992) and Wright et al., J. Neurochemistry 63:938-945 (1994).

Three compounds from patent publication US5688826A, “Excitatory amino acid derivatives” (Eli Lilly and Company, priority 1996, dated 1997) can be followed below.

In the case of `NC1(C(=O)O)COC2C(C(=O)O)C21` (single isomer, unassigned) [Example 2(g)], in experiment [1], the “agonist activity at cAMP-linked metabotropic glutamate receptors” value (“agonist activity” for short) was “potent agonists”.
The IC50 is the midpoint of a concentration-inhibition curve. A low value points to higher potency. In experiment [2], `NC1(C(=O)O)COC2C(C(=O)O)C21` (stereo not drawn) [Example 1, 1SR,4SR,5RS,6SR-4-Amino-2-Oxabicyclo[3.1.0]hexane-4,6-dicarboxylic Acid] came in with an IC50 of 55 nM. The “agonist activity” value in experiment [1] was “potent agonists”.
Turning to `NC1(C(=O)O)CSC2C(C(=O)O)C21` (stereo not drawn) [Example 4, 1SR,4RS,5RS,6RS-4-Amino-2-Thiabicyclo[3.1.0]hexane-4,6-dicarboxylic Acid], the “agonist activity” value in experiment [1] is given as “potent agonists”.
